Reference: patent US6258845A (priority 1999, dated 2001)
“Also recorded” adds a separate entry of the source. Where two headings read alike, the source gives them in different places.

Legend:
[1] = system: Caco-2 and clone 60 cells; test: Clonogenic assay (colony-forming efficiency), Caco-2 and clone 60 cells; type: cell-based, human
[2] = system: AOM-treated rat model of colon carcinogenesis; test: Colon carcinogenesis in the AOM-treated rat / rodent model; settings: sulfoxide and sulfone forms
[3] = system: Ki-ras transfected Caco-2 cells; test: Induction of apoptosis in Ki-ras transfected versus parental Caco-2 cells; type: cell-based, human; settings: 120 μM sulfide, 600 μM sulfone
Experimental: (§1) FIG. 3. […] Apoptosis was determined by light microscopy.

[4] = system: Ki-ras clone #60 cells; test: Clonogenic assay (colony-forming efficiency), Ki-ras clone 60; type: cell-based, human; settings: with or without DFMO; normalized survival
[5] = system: Ki-ras clone #60; test: Induction of apoptosis (light microscopy) in Ki-ras clone 60; type: cell-based, human
Experimental: as §1
(§2) FIG. 8. […] Cells were grown over a period of 6 days. Cells were harvested at various days (0, 2, 4 and 6 days), spun onto slides and stained. Apoptosis was determined by light microscopy. Percentage of apoptotic cells was calculated as the number of apoptotic cells out of the total cells counted times 100. At least 500 cells were counted for each sample.
(§3) Cells were grown over a period of 6 days. Cells were harvested at various days (0, 2, 4 and 6 days), spun onto slides and stained. Apoptosis was determined by light microscopy. Percentage of apoptotic cells was calculated as the number of apoptotic cells out of the total cells counted times 100.

[6] = system: COX (cyclooxygenase); settings: cited from earlier work
[7] = system: carcinogenesis in rodent/animal models; settings: in vivo; cited from earlier work
[8] = system: Ki-ras codon 12 mutations in the AOM-treated rat; test: Ki-ras codon 12 mutations in colon tumors of AOM-treated rats (PCR-RFLP); type: in vivo; settings: 0-1000 ppm in the food
From the text: A PCR™-RFLP assay is used to screen for codon 12 mutations in Ki-ras in colon adenocarcinomas from AOM-treated rats, because more than 60% of Ki-ras mutations in these tumors occur at this site (Jiang et al., 1989). PCR™ will be performed using primers designed to create a BstN1 restriction endonuclease site at codon 12 of the Ki-ras gene as described (Searle et al., 1982) a G→C change made at codon 11.3 bp from the 3' end of the wildtype upstream primer: 5'[…]-3') Ki-ras mutations are determined by whether a change had occurred in the BsN1 site. If a mutation had occurred, no change in base pair length from uncut PCR™ fragments would occur. Restriction enzyme digested PCR™ products were electrophoresed on a 3.5% agarose gel, stained with ethidium bromide, and visualized under […] UV trans-illumination for the presence of mutations.
Putative Ki-ras mutations detected by this assay method in colon adenocarcinomas obtained from AOM-treated rats will be confirmed by DNA sequencing methods.

[9] = system: Caco-2 parental cells, Ki-ras clone #60 and Ki-ras clone #66; test: Viable cell number (trypan blue dye exclusion), growth of Caco-2 parental and Ki-ras transfected cells; type: cell-based, human
Experimental: Effect of sulindac sulfide and sulfone on the growth of Ki-ras transfected cells. […] Viable cell number was determined by trypan blue dye exclusion.
Caco-2 cells were maintained in Modified Eagle Media (GIBCO, Grand Island, N.Y.) supplemented with 10% fetal bovine serum and a 1% penicillin (10,000 units/ml)-streptomycin (10,000 mg/ml) solution (GIBCO, Grand Island, N.Y.). Transfected Caco-2 cells resistant to neomycin were maintained in 400 μg/ml G418. Cells were maintained at 37° in the presence of 5% CO2 in air.
All cells were passed into new medium every two to three days, just prior to confluence. Drug additions were performed at the time of cell seeding and in MEM for each cell line unless otherwise noted. […] The two metabolites of sulindac, sulindac sulfone and sulfide, were obtained from Cell Pathways, Inc. (Horsham Pa.).
Caco-2 cells were removed from the monolayer by treatment with trypsin (1500 units/ml, Calbiochem, San Diego, Calif.)-EDTA (.7mM) and counted using a hemocytometer. A sample of the cell suspension was combined in a 1:1 volume ratio with trypan blue dye (GIBCO, Grand Island, N.Y.), and at least two independently prepared suspensions were counted on a hemocytometer, two counts each. For all cell types, viability was determined by the percentage of cells able to exclude the trypan blue dye.

[10] = system: tumor cells; settings: cited from earlier work
[11] = system: Caco-2 parental cells; test: Induction of apoptosis (light microscopy) in Caco-2 parental cells; type: cell-based, human; settings: Caco-2 parental
Experimental: as §1, §2, §3

[12] = 600 μM sulfone vs 120 μM sulfide

SMILES: CC1=C(CC(=O)O)c2cc(F)ccc2/C1=C\c1ccc(S(C)(=O)=O)cc1 [sulindac sulfone]
- IC50 ([1]; Homo sapiens, Caco-2, 24 h treatment, replated, colony formation, read-out: 50% decrease in cell number): ~800 µM
- effect of Ki-ras activation on viability / colony-forming efficiency after sulindac metabolite ([1]; increasing concentrations, 24 h): did not reveal any differences in colony-forming efficiency between Ki-ras transfectants and parental Caco-2 cells
- inhibition of carcinogenesis in the AOM-treated rat [2]: inhibit carcinogenesis in the AOM-treated rat, with similar potencies
- onset of apoptosis in Ki-ras transfected cells compared with parental cells [3]: accelerate the onset of apoptosis; also recorded: occurred several days earlier in Ki-ras transfected cells than in parental cells
- resistance of clone 60 to sulindac sulfone [4]: slightly more resistant to the effects of sulindac sulfone than the parental cells
- induction of apoptosis, sulfone compared with sulfide [5, 12]: more pronounced than with the sulfide
- time of peak apoptosis ([5]; 600 μM sulindac sulfone): 6 days
- COX / prostaglandin synthesis inhibition [6]: does not
- COX / prostaglandin synthesis inhibition ([6]; listed as Sulindac sulfone): lacks COX-inhibitory activity
- chemoprevention / inhibition of tumor development in animal models [7]: inhibits tumor development in several rodent models of carcinogenesis
- dose-dependency of Ki-ras mutation reduction [8]: some indication of dose-dependency
- frequency of AOM-induced codon 12 mutations in Ki-ras ([8]; from 19/31 (61%)): 14%
- incidence of AOM-induced codon 12 mutations in Ki-ras ([8]; from 19/31 (61%)): 5/35
- Ki-ras selective toxicity / Ki-ras-specific effect on growth ([9]; 120 μM sulindac sulfide or 600 μM sulindac sulfone): nor did sulindac sulfide or sulfone exert a Ki-ras-specific effect on growth
- number of viable cells ([9]; 600 μM sulindac sulfone): pronounced cell loss beginning 6 days after treatment
- induction of apoptosis in tumor cells [10]: induces apoptosis in tumor cells
- induction of apoptosis, sulfone compared with sulfide [11, 12]: more pronounced than with the sulfide
- time of peak apoptosis ([11]; 600 μM sulindac sulfone): 8 days
